Laboratory results reported in article PMC5338303, “Unveiling the Metabolic Changes on Muscle Cell Metabolism Underlying p-Phenylenediamine Toxicity” (Frontiers in Molecular Biosciences, 2017).

Experiments:
[1] = system: Wistar female rats; assay: Toxicity after oral administration; general appearance, behavior and signs of morbidity (Irwin test); type: in vivo, rat; design: key to Myoglobiunuria: ++ represents the presence of myoglobinuria; settings: for Ataxic Gait / Hypotonic Gait: animals affected/group; for Hipoactivity / Piloerection: duration
Protocol: The study was approved by the Ethics Committee on Animal Experimentation of University of Navarra. Wistar female rats, with a body weight of 160 g ± 20% (8 weeks old), were supplied by Harlan (Harlan Laboratories, Indianapolis, IN). The animals were housed in polycarbonate cages with stainless steel covers in a room under controlled temperature conditions (22 ± 3°C), controlled relative humidity (50 ± 20%) and light (12 h light–dark cycle). Air was exchanged 15 times/h sterile food supplied by Harlan (Harlan Laboratories, Indianapolis, IN) and controlled water was available ad libitum. The rats were housed in the study room for 5 days prior to the beginning of treatment in order to allow acclimatization to the environmental conditions. Finally, three rats were randomly assigned to each studied group corresponding to different PPD doses (10, 20, 40, and 60 mg/Kg) and control (DMSO).
(§1) The animals were divided into groups of three rats at random. A control group receiving the vehicle and four groups receiving PPD at several concentrations 10, 20, 40, and 60 mg/kg at single dose were included (Figure 1). The compound was administered in a volume of 300 μl of 100% DMSO by gavage. Animals were evaluated based on general appearance, behavior and signs of morbidity using the Irwin test (Castagné et al., [2012]), immediately following administration, 30 min, 1, 2, 4, and 8 h after the administration (Figure 1). All of the animals were weighed just before the acclimatization period, before administration and 24, 48, and 72 h after administration. At the end of the observation period (24, 48, and 72 h after administration), all the animals were anesthetized and blood samples were collected from tail and retro orbital sinus and centrifuged at 2000 × g for 30 min at 4°C to recover the serum (Figure 1). The serum was frozen and stored at −20°C until determination of biochemical parameters such as urea, creatinin, Glucose, aspartate aminotransferase (AST), alanine aminotransferase (ALT) and creatine kinase (CK), lactate dehydrogenase (LDH), at 24, 48, and 72 h before sacrificed in a CO2 chamber and autopsied. All of the tissues were observed grossly. Ovaries, kidneys, liver, spleen, heart, and lung were weighed and the relative organ weights were calculated. Serum CK and LDH levels were measured.

[2] = system: Wistar female rats; assay: Serum biochemical parameters (AST, ALT, CK, LDH); type: in vivo, rat; settings: 40 and 60 mg/kg
Protocol: as §1

[3] = system: Wistar female rats; assay: Blood packed cell volume, hemoglobin, organ weights and histology; type: in vivo, rat
Protocol: as §1

[4] = system: C2C12 cells; assay: Cell cycle analysis (FACS, propidium iodide); type: cell-based, Mus musculus mouse; settings: vs untreated cells
Protocol: Cell cycle was evaluated by measuring FACS (fluorescence-activated cell sorter) in an Epics XL flow cytometer at 488 nm (Coulter Corporation, Hialeah, FL, USA). This technique allows for the semiquantitation of DNA in each cell and permits to separate cells in G0 or G1 phase (one copy of DNA), G2 or M phase (after DNA duplication) and S phase (the amount of DNA per cell is in an intermediate state between the two previous conditions). For these measurements, C2C12 cells were cultivated in 6 well-plates (4 × 10^5 cells/well each) with 2 ml of culture medium. After 24 h of plated, PPD corresponding to IC50 and IC80 concentrations was added and cells were incubated for 24 h, in parallel, control C2C12 cells were cultured without PPD. All experiments were performed five times with two replicates for each experiment.

[5] = system: C2C12 cells; assay: Annexin V-Fluorescein isothiocyanate binding assay (apoptosis); type: cell-based, Mus musculus mouse
Excerpt: This technique permits to determine whether a cell is at early or late apoptosis or necrotic state. In early apoptosis, Phosphatidylserine (PS) is translocated to the outer membrane allowing PS-annexin V-Fluorescein Isothiocyanate (FITC) binding. In late apoptosis, as well as in necrotic processes, cell membranes lose their integrity allowing PI to access the nucleus and bind the DNA bases. Next, by using FACS analysis one can determine PI and annexin V-FITC staining accumulation to differentiate non-apoptotic cells (PI– and annexin V–) from early apoptotic (PI− and annexin V+) and necrotic or late apoptotic (PI+) cells (Cortés et al., [2012]). The same amount of C2C12 cells mentioned for cell cycle assay was treated with PPD as previously described. Cells were then collected and resuspended in binding buffer (10 mM Hepes/NaOH, pH7.4, 140 mM NaCl, 2.5 mM CaCl2). Annexin V-FITC conjugate (1 μg/ml) was added and incubated for 30 min at room temperature in the dark. Just before FACS analysis [Bender medSystems (Innogenetics) human Annexin V-FITC Kit cat No. BMS306FI], cells were stained with 1 mg/ml PI solution. In each experiment ~20 × 10^3 cells per condition were analyzed and the experiment was performed five times.

[6] = system: C2C12 cells; assay: Biochemical characterization: glucose and lactate concentrations in culture medium; type: cell-based, Mus musculus mouse; settings: PPD at IC50, 24 h
Protocol: Glucose and lactate concentrations were determined from culture medium at initial and end-time points by using Cobas Mira Plus chemistry analyzer (HORIBA ABX, Montpellier, France; Cisternas et al., [2016]).
Cells were cultured in DMEM (Biowithaker) °supplemented with 10% dialyzed heat-inactivated Fetal Bovine Serum (FBS), glucose (10 mM, 50% isotope enrichment [1,2-^13C2]-glucose), asparagine (20 mg/ml), penicillin (100 U/ml), and streptomycin (100 μg/ml). […] Initially each flask contained 10^6 cells and the incubation was carried out for 24 h. To separate medium and cell pellets, cells were centrifuged at the end of incubation (3000 × g, 5 min). Afterwards, pellet and medium were stored at −20°C for metabolite isolations.

Question: For `Nc1ccc(N)cc1` [PPD, p-phenylenediamine], which Myoglobiunuria ([1]; 10 mg/kg single oral dose) is on record?
Answer: Its Myoglobiunuria is “++”.

Question: What about the “Ataxic Gait” value ([1]; 10 mg/kg single oral dose) of the same compound?
Answer: The value was 0/3.

Question: What about the “Hypotonic Gait” value ([1]; 10 mg/kg single oral dose) of the same compound?
Answer: The value was 0/3.

Question: And the Hipoactivity ([1]; 10 mg/kg single oral dose)?
Answer: Its Hipoactivity is 10 h.

Question: What about the Piloerection ([1]; 10 mg/kg single oral dose) of the same compound?
Answer: Its Piloerection is 2 to 4 h.

Question: And the Myoglobiunuria ([1]; 20 mg/kg single oral dose)?
Answer: Its Myoglobiunuria is “++”.

Question: What about the “Ataxic Gait” value ([1]; 20 mg/kg single oral dose) of the same compound?
Answer: Its value is 0/3.

Question: And the “Hypotonic Gait” value ([1]; 20 mg/kg single oral dose)?
Answer: Its value is 0/3.

Question: And the Hipoactivity ([1]; 20 mg/kg single oral dose)?
Answer: The Hipoactivity was 10 h.

Question: What about the Piloerection ([1]; 20 mg/kg single oral dose) of the same compound?
Answer: The Piloerection was 2 to 4 h.

Question: What about the Hipoactivity ([1]; 40 mg/kg single oral dose) of the same compound?
Answer: Its Hipoactivity is 24 h.

Question: What about the Piloerection ([1]; 40 mg/kg single oral dose) of the same compound?
Answer: The Piloerection was “Until death”.

Question: What about the “Ataxic Gait” value ([1]; 60 mg/kg single oral dose) of the same compound?
Answer: The value was 0/3.

Question: What about the “Hypotonic Gait” value ([1]; 60 mg/kg single oral dose) of the same compound?
Answer: Its value is 3/3.

Question: What about the Hipoactivity ([1]; 60 mg/kg single oral dose) of the same compound?
Answer: The Hipoactivity was 48 h.

Question: And the Piloerection ([1]; 60 mg/kg single oral dose)?
Answer: Its Piloerection is “Until death”.

Question: What about the gait ([1]; 60 mg/kg, after 48 h, disappeared after 72 h) of the same compound?
Answer: Its gait is “ataxic gait”.

Question: And the “signs observed at lower doses” value ([1]; 10 and 20 mg/kg, until 10 h of treatment)?
Answer: The value was “depressed activity and some of they had brown color urine or myoglobinuria”.

Question: What about the “signs observed at higher doses” value ([1]; 40 and 60 mg/kg, until 4 h of treatment) of the same compound?
Answer: The value was “total loss of equilibrium, hypotonic gait and piloerection”.

Question: What about the urine color ([1]; after 24 h of treatment, disappears at 48 and 72 h) of the same compound?
Answer: The urine color was “all animals had urine brown color but in absence of hematuria”.

Question: And the “evolution of body weight” value ([1]; all groups, 10-60 mg/kg, up to 72 h)?
Answer: The value was “normal”.

Question: And the “persistence of muscular weakness” value ([1]; rat, in vivo)?
Answer: Its value is 3 days.

Question: What about the ALT in serum ([2]; 24, 48 and 72 h) of the same compound?
Answer: The ALT in serum was “increased”.

Question: What about the AST in serum ([2]; 24, 48 and 72 h) of the same compound?
Answer: Its AST in serum is “increased”.

Question: And the CK in serum ([2]; 24 h)?
Answer: The CK in serum was “increased”.

Question: What about the LDH in serum ([2]; 24 h) of the same compound?
Answer: Its LDH in serum is “increased”.

Question: What about the organs weight ([3]; 48 and 72 h, any condition) of the same compound?
Answer: The organs weight was “No significant differences”.

Question: What about the “Blood packed cell volume” value ([3]; any condition (10-60 mg/kg)) of the same compound?
Answer: The value was “No significant differences”.

Question: What about the hemoglobin levels ([3]; any condition (10-60 mg/kg)) of the same compound?
Answer: The hemoglobin levels was “No significant differences”.

Question: What about the “Histological analysis of extracted organs” value ([3]; vs controls) of the same compound?
Answer: The value was “patterns similar to controls”.

Question: What about the “decrease in the percentage of cells in G0/G1 phases” value ([4]; PPD at IC50, 24 h) of the same compound?
Answer: The value was 19%.

Question: And the “increase in the population in S phase” value ([4]; PPD at IC50, 24 h)?
Answer: The value was 13%.

Question: What about the “decrease in the percentage of cells in G0/G1 phases” value ([4]; PPD at IC80, 24 h) of the same compound?
Answer: Its value is 32%.

Question: And the “increase in the population in S phase” value ([4]; PPD at IC80, 24 h)?
Answer: Its value is 28%.

Question: And the early apoptosis ([5]; PPD at IC50, 24 h)?
Answer: Its early apoptosis is 34.7%.

Question: What about the late apoptosis ([5]; PPD at IC50, 24 h) of the same compound?
Answer: The late apoptosis was 18.8%.

Question: What about the early apoptosis ([5]; PPD at IC80, 24 h) of the same compound?
Answer: The early apoptosis was 20.1%.

Question: And the late apoptosis ([5]; PPD at IC80, 24 h)?
Answer: Its late apoptosis is 23.9%.

Question: What about the “glucose consumption (Δglucose)” value [6] of the same compound?
Answer: Its value is 2,42 ± 0,26 mM.

Question: What about the “lactate production (Δlactate)” value [6] of the same compound?
Answer: The value was 1,5 ± 0,3 mM.
